Values belong to the compound of their own block, whether it stands above or below them.
Tests used:
JAK3 = JAK3 (Homo sapiens, UniProt P52333); assay: Kinase inhibitory activity, full kinase panel; assay type: biochemical; details: single concentration of 1 μM, read-out: %Inhibitory ability
Description: (§1) In order to measure inhibitory activity (% inhibitory ability) against a protein kinase with respect to the compound of the present invention, a biochemical assay was performed in a full kinase panel shown in the following Table 1. As an experimental compound, the (S)-5-((3-fluorophenyl)ethynyl)-N-(piperidin-3-yl)-3-ureidothiophene-2-carboxamide synthesized in Example 24 was used.

RET = RET (Homo sapiens, UniProt P07949); assay: Kinase inhibitory activity, full kinase panel; assay type: biochemical; details: single concentration of 1 μM, read-out: %Inhibitory ability
Sequence of RET (P07949 29-1114): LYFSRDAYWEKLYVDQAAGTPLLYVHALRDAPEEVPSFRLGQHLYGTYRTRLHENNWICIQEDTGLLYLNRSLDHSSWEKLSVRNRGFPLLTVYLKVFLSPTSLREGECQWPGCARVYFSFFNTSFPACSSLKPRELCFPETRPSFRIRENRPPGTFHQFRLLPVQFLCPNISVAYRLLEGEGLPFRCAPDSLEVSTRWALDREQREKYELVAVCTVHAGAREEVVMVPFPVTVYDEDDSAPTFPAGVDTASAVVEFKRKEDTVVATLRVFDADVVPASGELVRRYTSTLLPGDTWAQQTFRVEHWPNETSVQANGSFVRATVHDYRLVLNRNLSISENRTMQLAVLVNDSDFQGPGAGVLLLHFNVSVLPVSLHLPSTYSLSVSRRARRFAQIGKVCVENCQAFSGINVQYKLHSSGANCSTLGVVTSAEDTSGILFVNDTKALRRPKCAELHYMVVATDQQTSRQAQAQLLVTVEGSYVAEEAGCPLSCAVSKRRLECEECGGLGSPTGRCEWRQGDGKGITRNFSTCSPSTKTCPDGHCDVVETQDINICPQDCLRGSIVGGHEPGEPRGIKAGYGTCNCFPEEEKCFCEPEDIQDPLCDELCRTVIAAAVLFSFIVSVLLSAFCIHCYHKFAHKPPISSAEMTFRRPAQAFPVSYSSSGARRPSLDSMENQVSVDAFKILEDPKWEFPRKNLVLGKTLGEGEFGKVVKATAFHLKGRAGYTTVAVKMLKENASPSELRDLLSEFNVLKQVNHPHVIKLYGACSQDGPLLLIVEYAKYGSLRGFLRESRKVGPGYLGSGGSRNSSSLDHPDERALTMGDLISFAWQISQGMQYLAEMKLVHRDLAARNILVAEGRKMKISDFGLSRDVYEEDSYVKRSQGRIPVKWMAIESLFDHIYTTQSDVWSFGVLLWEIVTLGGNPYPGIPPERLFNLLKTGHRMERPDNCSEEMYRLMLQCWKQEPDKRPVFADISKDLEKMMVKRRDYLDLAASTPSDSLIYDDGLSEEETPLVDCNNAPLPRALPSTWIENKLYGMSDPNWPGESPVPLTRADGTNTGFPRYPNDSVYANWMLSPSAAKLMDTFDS
Description: as §1

MST2 = MST2 (Homo sapiens, UniProt Q13188); assay: Kinase inhibitory activity, full kinase panel; assay type: biochemical; details: single concentration of 1 μM, read-out: %Inhibitory ability
Description: as §1

SRPK1 = SRPK1 (Homo sapiens, UniProt Q96SB4); assay: Kinase inhibitory activity, full kinase panel; assay type: biochemical; details: single concentration of 1 μM, read-out: %Inhibitory ability
Description: as §1

MLK3 = MLK3 (Homo sapiens, UniProt Q16584); assay: Kinase inhibitory activity, full kinase panel; assay type: biochemical; details: single concentration of 1 μM, read-out: %Inhibitory ability
Description: as §1

TNIK = TNIK (Homo sapiens, UniProt Q9UKE5); assay: Kinase inhibitory activity, full kinase panel; assay type: biochemical; details: single concentration of 1 μM, read-out: %Inhibitory ability
Description: as §1

CSK = CSK (Homo sapiens, UniProt P41240); assay: Kinase inhibitory activity, full kinase panel; assay type: biochemical; details: single concentration of 1 μM, read-out: %Inhibitory ability
Description: as §1

BUB1 = BUB1 (Homo sapiens, UniProt O43683); assay: Kinase inhibitory activity, full kinase panel; assay type: biochemical; details: single concentration of 1 μM, read-out: %Inhibitory ability
Description: as §1

MAP4K4 = MAP4K4 (Homo sapiens, UniProt O95819); assay: Kinase inhibitory activity, full kinase panel; assay type: biochemical; details: single concentration of 1 μM, read-out: %Inhibitory ability
Description: as §1

LOK = LOK (Homo sapiens, UniProt O94804); assay: Kinase inhibitory activity, full kinase panel; assay type: biochemical; details: single concentration of 1 μM, read-out: %Inhibitory ability
Sequence of LOK (O94804 whole entry, species assumed): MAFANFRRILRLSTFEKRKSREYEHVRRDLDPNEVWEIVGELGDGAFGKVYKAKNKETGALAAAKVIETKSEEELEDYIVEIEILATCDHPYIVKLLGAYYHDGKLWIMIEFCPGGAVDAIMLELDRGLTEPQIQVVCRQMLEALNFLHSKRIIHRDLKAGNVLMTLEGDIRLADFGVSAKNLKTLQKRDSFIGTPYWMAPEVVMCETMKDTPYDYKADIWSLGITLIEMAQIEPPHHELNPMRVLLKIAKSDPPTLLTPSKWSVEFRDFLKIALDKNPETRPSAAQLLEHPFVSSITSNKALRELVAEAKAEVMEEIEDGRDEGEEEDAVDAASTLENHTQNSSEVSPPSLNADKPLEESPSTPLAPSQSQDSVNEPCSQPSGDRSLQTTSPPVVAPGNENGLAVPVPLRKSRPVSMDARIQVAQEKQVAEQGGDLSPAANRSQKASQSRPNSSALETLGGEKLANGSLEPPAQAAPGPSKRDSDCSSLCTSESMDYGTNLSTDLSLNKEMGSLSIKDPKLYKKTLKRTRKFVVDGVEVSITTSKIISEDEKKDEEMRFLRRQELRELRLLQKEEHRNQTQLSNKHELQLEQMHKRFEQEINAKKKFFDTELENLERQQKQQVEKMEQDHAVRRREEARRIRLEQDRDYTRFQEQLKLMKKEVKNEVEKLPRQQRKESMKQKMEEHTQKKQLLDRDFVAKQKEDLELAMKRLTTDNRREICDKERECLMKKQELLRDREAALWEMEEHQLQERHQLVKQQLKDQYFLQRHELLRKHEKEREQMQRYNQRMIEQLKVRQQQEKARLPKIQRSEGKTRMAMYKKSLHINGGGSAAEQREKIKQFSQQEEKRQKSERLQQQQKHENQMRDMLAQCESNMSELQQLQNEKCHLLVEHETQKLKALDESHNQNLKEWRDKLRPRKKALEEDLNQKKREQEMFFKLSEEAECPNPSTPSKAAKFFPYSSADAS
Description: as §1

IRAK1 = IRAK1 (Homo sapiens, UniProt P51617); assay: Kinase inhibitory activity, full kinase panel; assay type: biochemical; details: single concentration of 1 μM, read-out: %Inhibitory ability
Description: as §1

YANK2 = YANK2 (Homo sapiens, UniProt Q9NY57); assay: Kinase inhibitory activity, full kinase panel; assay type: biochemical; details: single concentration of 1 μM, read-out: %Inhibitory ability
Description: as §1

DLK = DLK (Homo sapiens, UniProt Q12852); assay: Kinase inhibitory activity, full kinase panel; assay type: biochemical; details: single concentration of 1 μM, read-out: %Inhibitory ability
Description: as §1

CSF1R = CSF1R (Homo sapiens, UniProt P07333); assay: Kinase inhibitory activity, full kinase panel; assay type: biochemical; details: single concentration of 1 μM, read-out: %Inhibitory ability
Description: as §1

EPHA3 = EPHA3 (Homo sapiens, UniProt P29320); assay: Kinase inhibitory activity, full kinase panel; assay type: biochemical; details: single concentration of 1 μM, read-out: %Inhibitory ability
Description: as §1

MINK = MINK (Homo sapiens, UniProt Q8N4C8); assay: Kinase inhibitory activity, full kinase panel; assay type: biochemical; details: single concentration of 1 μM, read-out: %Inhibitory ability
Description: as §1

TXK = TXK (Homo sapiens, UniProt P42681); assay: Kinase inhibitory activity, full kinase panel; assay type: biochemical; details: single concentration of 1 μM, read-out: %Inhibitory ability
Description: as §1

MST4 = MST4 (Homo sapiens, UniProt Q9P289); assay: Kinase inhibitory activity, full kinase panel; assay type: biochemical; details: single concentration of 1 μM, read-out: %Inhibitory ability
Description: as §1

ULK2 = ULK2 (Homo sapiens, UniProt Q8IYT8); assay: Kinase inhibitory activity, full kinase panel; assay type: biochemical; details: single concentration of 1 μM, read-out: %Inhibitory ability
Description: as §1

OSR1 = OSR1 (Homo sapiens, UniProt O95747); assay: Kinase inhibitory activity, full kinase panel; assay type: biochemical; details: single concentration of 1 μM, read-out: %Inhibitory ability
Description: as §1

PDGFRB = PDGFRB (Homo sapiens, UniProt P09619); assay: Kinase inhibitory activity, full kinase panel; assay type: biochemical; details: single concentration of 1 μM, read-out: %Inhibitory ability
Sequence of PDGFRB (P09619 33-1106): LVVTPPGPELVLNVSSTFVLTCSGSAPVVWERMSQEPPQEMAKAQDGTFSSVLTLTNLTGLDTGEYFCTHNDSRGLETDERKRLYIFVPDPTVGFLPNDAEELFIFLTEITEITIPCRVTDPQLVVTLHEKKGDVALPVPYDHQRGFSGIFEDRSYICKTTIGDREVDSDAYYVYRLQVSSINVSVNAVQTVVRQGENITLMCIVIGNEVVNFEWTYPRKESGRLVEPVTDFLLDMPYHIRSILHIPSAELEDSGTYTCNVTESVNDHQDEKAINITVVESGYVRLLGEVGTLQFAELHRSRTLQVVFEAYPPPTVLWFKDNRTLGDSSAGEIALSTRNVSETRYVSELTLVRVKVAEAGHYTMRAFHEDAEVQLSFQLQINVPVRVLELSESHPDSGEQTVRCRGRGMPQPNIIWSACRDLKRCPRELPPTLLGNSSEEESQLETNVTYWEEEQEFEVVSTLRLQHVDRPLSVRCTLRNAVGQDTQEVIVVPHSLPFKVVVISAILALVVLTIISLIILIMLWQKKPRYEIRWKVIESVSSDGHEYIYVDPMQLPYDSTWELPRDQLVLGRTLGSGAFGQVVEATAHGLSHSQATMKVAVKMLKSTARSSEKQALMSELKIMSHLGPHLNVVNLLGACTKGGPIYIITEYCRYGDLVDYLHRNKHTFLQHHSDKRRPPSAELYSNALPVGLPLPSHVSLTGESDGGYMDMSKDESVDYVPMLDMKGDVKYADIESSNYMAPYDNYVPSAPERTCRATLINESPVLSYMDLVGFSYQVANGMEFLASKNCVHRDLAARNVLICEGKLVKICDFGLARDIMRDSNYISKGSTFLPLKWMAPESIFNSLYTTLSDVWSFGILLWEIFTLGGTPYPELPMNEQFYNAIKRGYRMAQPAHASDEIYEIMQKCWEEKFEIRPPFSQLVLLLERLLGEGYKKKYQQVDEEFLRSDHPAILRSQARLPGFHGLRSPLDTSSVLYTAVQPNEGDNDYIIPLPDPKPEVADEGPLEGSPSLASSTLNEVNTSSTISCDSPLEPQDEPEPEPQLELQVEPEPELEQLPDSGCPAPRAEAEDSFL
Description: as §1

JAK2 = JAK2 (Homo sapiens, UniProt O60674); assay: Kinase inhibitory activity, full kinase panel; assay type: biochemical; details: single concentration of 1 μM, read-out: %Inhibitory ability
Description: as §1

PRKX = PRKX (Homo sapiens, UniProt P51817); assay: Kinase inhibitory activity, full kinase panel; assay type: biochemical; details: single concentration of 1 μM, read-out: %Inhibitory ability
Description: as §1

FAK = FAK (Homo sapiens, UniProt Q05397); assay: Kinase inhibitory activity, full kinase panel; assay type: biochemical; details: single concentration of 1 μM, read-out: %Inhibitory ability
Description: as §1

BLK = BLK (Homo sapiens, UniProt P51451); assay: Kinase inhibitory activity, full kinase panel; assay type: biochemical; details: single concentration of 1 μM, read-out: %Inhibitory ability
Sequence of BLK (P51451 whole entry, species assumed): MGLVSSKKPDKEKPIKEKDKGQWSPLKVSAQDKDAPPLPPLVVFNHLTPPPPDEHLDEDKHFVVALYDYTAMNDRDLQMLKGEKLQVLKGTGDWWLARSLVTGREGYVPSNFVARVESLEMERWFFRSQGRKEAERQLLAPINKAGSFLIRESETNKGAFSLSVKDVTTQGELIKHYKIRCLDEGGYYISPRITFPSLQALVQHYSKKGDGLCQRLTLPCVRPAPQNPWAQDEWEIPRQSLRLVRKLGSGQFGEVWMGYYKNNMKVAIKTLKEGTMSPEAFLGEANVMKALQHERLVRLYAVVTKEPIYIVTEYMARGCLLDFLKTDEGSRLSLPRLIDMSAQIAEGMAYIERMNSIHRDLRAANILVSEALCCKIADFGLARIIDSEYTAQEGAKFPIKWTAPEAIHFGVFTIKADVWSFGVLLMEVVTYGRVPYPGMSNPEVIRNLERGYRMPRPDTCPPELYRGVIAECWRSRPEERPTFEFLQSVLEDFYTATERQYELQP
Description: as §1

MERTK = MERTK (Homo sapiens, UniProt Q12866); assay: Kinase inhibitory activity, full kinase panel; assay type: biochemical; details: single concentration of 1 μM, read-out: %Inhibitory ability
Description: as §1

MAP3K3 = MAP3K3 (Homo sapiens, UniProt Q99759); assay: Kinase inhibitory activity, full kinase panel; assay type: biochemical; details: single concentration of 1 μM, read-out: %Inhibitory ability
Sequence of MAP3K3 (Q99759 whole entry, species assumed): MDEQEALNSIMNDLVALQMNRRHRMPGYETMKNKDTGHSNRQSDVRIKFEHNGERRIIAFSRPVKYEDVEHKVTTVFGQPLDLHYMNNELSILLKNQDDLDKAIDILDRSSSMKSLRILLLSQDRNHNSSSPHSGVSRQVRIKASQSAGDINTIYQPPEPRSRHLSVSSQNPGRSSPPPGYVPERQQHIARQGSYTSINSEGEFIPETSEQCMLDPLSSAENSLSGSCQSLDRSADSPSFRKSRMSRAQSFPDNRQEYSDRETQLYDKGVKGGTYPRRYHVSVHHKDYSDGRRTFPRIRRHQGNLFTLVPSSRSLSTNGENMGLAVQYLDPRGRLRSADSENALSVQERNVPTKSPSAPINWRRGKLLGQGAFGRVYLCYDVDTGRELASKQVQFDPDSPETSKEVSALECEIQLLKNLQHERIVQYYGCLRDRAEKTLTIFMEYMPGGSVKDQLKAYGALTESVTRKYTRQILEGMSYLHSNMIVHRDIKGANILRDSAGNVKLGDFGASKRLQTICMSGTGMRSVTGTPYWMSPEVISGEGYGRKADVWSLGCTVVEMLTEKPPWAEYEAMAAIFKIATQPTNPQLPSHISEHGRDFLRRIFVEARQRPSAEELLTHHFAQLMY
Description: as §1

SYK = SYK (Homo sapiens, UniProt P43405); assay: Kinase inhibitory activity, full kinase panel; assay type: biochemical; details: single concentration of 1 μM, read-out: %Inhibitory ability
Description: as §1

SRC = SRC (Homo sapiens, UniProt P12931); assay: Kinase inhibitory activity, full kinase panel; assay type: biochemical; details: single concentration of 1 μM, read-out: %Inhibitory ability
Sequence of SRC (P12931 whole entry, species assumed): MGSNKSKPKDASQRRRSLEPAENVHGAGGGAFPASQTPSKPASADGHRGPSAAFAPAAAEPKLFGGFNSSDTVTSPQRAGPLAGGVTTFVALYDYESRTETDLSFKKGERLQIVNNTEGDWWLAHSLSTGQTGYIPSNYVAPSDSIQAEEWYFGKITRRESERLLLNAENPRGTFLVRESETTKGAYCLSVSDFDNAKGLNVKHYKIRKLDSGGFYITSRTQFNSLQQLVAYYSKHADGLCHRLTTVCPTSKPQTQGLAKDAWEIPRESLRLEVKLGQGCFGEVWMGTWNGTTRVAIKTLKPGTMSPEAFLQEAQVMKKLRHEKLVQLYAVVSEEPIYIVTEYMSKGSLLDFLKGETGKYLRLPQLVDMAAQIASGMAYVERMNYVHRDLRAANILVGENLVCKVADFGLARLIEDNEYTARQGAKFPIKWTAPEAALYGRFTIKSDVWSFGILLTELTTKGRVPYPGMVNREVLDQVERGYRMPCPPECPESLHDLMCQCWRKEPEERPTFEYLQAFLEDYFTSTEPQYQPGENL
Description: as §1

[1] = tested on: FLT3-ITD-F691L-D835Y Ba/F3 cells; assay: In vivo bioluminescent efficacy study in mouse AML model; details: for T/C, reduction of luminescence: compared with AC220-treated and vehicle control mice
Description: Nude mice (5-6 weeks old)(Orient) were purchased and used after a week. Mice were anesthetized following IACUC approved animal protocol. FLT3-ITD F691L-D835Y, luc+ Ba/F3 cell (Established in-house) suspension (in 0.1 mL RPMI1640 (Welgene) of 1.0×10^6 cells) was injected into tail vein intravenously using a 29-G needle, and an tail mark was added to each animal for identification. After 6 days, the luminescence intensity was measured using IVIS (Perkin Elmer) to calculate the ROI intensity. Once ROI intensity reaches the study-desired minimum intensity (usually 2×106), mice were randomized into different treatment groups based on signal intensity.
(§2) Each compound was dissolved in NMP at 20× final concentration and diluted to 1× with the remaining vehicle components (vehicle: 5% NMP, 15% solutol (Sigma-aldrich), 30% PEG400 (Sigma-aldrich), 50% 0.05M citric acid (Sigma-aldrich)). Each compound solution was prepared freshly just before administration. Compounds were administered orally using a mouse sondae once a day, 0.1 mL per mouse. Mice were humanely euthanized if animals experience 20% body weight loss.
(§3) D-Luciferin (Promega) was dissolved in DPBS (Welgene) (without Ca2+ and Mg2+) at 15 mg/mL, and the stock solution was prepared after filtration using 0.22 μm syringe filters (BD). Luciferin solution (150 mg/kg in DPBS) was injected intraperitoneally into each mouse (200 μL/mouse). After 5 min, mice were anesthetized for 5 min using isoflurane (JW Pharma). Luminescence signal was read using IVIS200 (exposure time: auto, binning: 8, F/stop: 1). Signal intensity and body weights were measured every 3 days to monitor the ROI intensity and treatment-induced body weight loss. […] Data was analyzed using Living Image software (Caliper, PerkinElmer).
(§4) Statistical analysis of luminescence signal intensity, mouse body weight, and spleen/body weight ratio were evaluated using two-way ANOVA. Differences were considered statistically significant at p<0.005.

[2] = Body weight change during bioluminescent in vivo efficacy study; parameters: species or system mouse; details: po, qd
Description: as §2, §3, §4

inhibition at 1 µM (JAK3): 91.1%
inhibition at 1 µM (RET): 98.7%
inhibition at 1 µM (MST2): 92.5%
inhibition at 1 µM (SRPK1): 83%
inhibition at 1 µM (MLK3): 90.8%
inhibition at 1 µM (TNIK): 96.3%
inhibition at 1 µM (CSK): 92.1%
inhibition at 1 µM (BUB1): 97.4%
inhibition at 1 µM (MAP4K4): 91.4%
inhibition at 1 µM (LOK): 71%
inhibition at 1 µM (IRAK1): 90.7%
inhibition at 1 µM (YANK2): 76%
inhibition at 1 µM (DLK): 68%
inhibition at 1 µM (CSF1R): 98.4%
inhibition at 1 µM (EPHA3): 80%
inhibition at 1 µM (MINK): 97.1%
inhibition at 1 µM (TXK): 83%
inhibition at 1 µM (MST4): 83%
inhibition at 1 µM (ULK2): 99.7%
inhibition at 1 µM (OSR1): 68%
inhibition at 1 µM (PDGFRB): 99.9%
inhibition at 1 µM (JAK2): 83%
inhibition at 1 µM (PRKX): 73%
inhibition at 1 µM (FAK): 75%
inhibition at 1 µM (BLK): 93.2%
inhibition at 1 µM (MERTK): 96.1%
inhibition at 1 µM (MAP3K3): 94.6%
inhibition at 1 µM (SYK): 91.5%
inhibition at 1 µM (SRC): 98.1%
SMILES: Cc1ccc(C#Cc2cc(NC(N)=O)c(C(=O)N[C@H]3CCCNC3)s2)cc1 [Example 24, (S)—N-(piperidin-3-yl)-5-(p-tolylethynyl)-3-ureidothiophene-2-carboxamide]

SMILES: NC(=O)Nc1cc(C#Cc2cccc(F)c2)sc1C(=O)N[C@H]1CCCNC1 [Example 22, (S)-5-((3-fluorophenyl)ethynyl)-N-(piperidin-3-yl)-3-ureidothiophene-2-carboxamide]
T/C, reduction of luminescence ([1]; 15 mg/kg orally once per day): 84.2%
T/C, reduction of luminescence ([1]; 30 mg/kg orally once per day): 88.7%
tumor inhibition at low dosages (luminescence) ([1]; 2, 4, 7, 10 mg/kg, po, qd): dose-dependent tumor inhibition in vivo from a dosage of 2 mg/kg
mouse body weight [2]: did not alter the mouse body weight
